Consider six molecules from patent publication EP0398231B1, “Nucleoside analogs” (INSTITUTE OF ORGANIC CHEMISTRY AND BIOCHEMISTRY OF THE …, priority 1989, dated 1990).

In brackets after ≈: the same amount, converted by molar mass. Structures can show the parent of a compound that is named as a salt. Where two headings read alike, the source gives them in different places.

For one data set, the system named is R-MuLV. The experiment in a line: UV-XC plaque assay in SC-1 cells, R-MuLV. The data set is classed as cell-based, murine leukemia virus. How it is done: (§1) The compounds were evaluated for antiviral activity against murine leukemia virus (MuLV) strains using the UV-XC plaque assay (Rowe, et al., Virology, 42:1136, 1970).
(§2) The MuLV strains were grown in feral mouse cells (SC-1) and used for antiviral tests using the UV-XC plaque assay. Briefly, SC-1 cells are grown as monolayers in 4-well tissue culture plates and inoculated with approximately 50-100 plaque forming units of MuLV in 0.5 ml of 5% EMEM containing 20 µg/ml DEAE/Dextran. After 1 hour adsorbtion, the inoculum is removed and 5 ml of 5% EMEM containing three-fold dilutions of the appropriate drug are added. Five days later, the cultures are UV-irradiated with an ultraviolet lamp and rat XC sarcoma cells are added to the cultures. Three-four days after UV-irradiation, the cell cultures are stained with Giemsa stain and the plaques are enumerated. Antiviral activity is expressed in terms of the reduction in the mean number of UX-XC plaques counted in the drug treated, virus-infected cultures compared with mean number of plaques counted in untreated, virus-infected control cultures.

The subject of the next data set is MuLV. Kind of data set: UV-XC plaque assay in SC-1 cells, MuLV. The format is cell-based, murine leukemia virus. The settings on record: Virus MuLV, Cell-line SC-1; read-out: ID50 (the source's name). How it is done:
as §1, §2
(§3) This compound was evaluated for anti-retroviral activity by the methods described in Examples 43 and 44. AZT controls were run simultaneously to confirm the validity of the test.

A further data set concerns HIV (LAV strain). The experiment in a line: HIV in vitro assay in CEM cells, p-24 gag protein ELISA. The data set is classed as cell-based. How it is done:
The HIV in vitro assay described as follows was used: The anti-HIV/LAV activity is measured in cultures of CEM-F cells.
On the technique in general: In an ELISA, binding on a coated surface is turned into a signal by an enzyme label.

For the next data set, the system named is SC-1. The data set is classed as cell-based. The settings on record: mouse, sc-1 cells.
Another data set relates to HIV. Kind of data set: HIV assay in MT-4 cells. The format is cell-based. Particulars: Virus HIV, Cell-line MT-4; read-out: ID50 (the source's name). How it is done: as §3
The next data set relates to Herpes simplex virus - 2. Kind of data set: Survival of mice inoculated with Herpes simplex virus-2, 21 day protocol. The format is in vivo. How it is done:
A preferred example of one of these compounds, known as (S)-HPMPA (Formula 4') was disclosed by DeClercq, et al., in Nature, 1986, 323, pp. 464-467 and earlier by Holy, et al., Nucleic Acids Research, Symposium Series No. 14, 1984, pp. 277-278. Phosphonate compounds which are HPMPA analogs are described in South African Patent 1987/8607. […] In a 21 day protocol 30% of a group of animals treated i.p. with 50 mg/kg/day of (S)-HPMPA survived. [drawing 4]

The subject of another data set is HSV-1. Kind of data set: Plaque reduction assay in vero cells, HSV-1. The data set is classed as cell-based, Herpes simplex virus. Particulars: Human alphaherpesvirus 1, 48 hour incubation, read-out: ID50 HVS-1. How it is done: (§4) Herpes simplex virus (HSV) strains were grown and titered at 37°C in vero cells (African Green Monkey Kidney cells) and used for virus work before the tenth passage.
(§5) Cells were grown and maintained in Earle's Minimum Essential Medium (EMEM), Gibco Laboratories, supplemented with 0.75% sodium bicarbonate, 2mM 1-glutamine, Pen-strep. and 5-10% fetal calf serum.
(§6) The titer of HSV strains is determined by a plaque titration method (Roizman and Roane, Virology, 115:75-79, 1961). Tissue culture 24-well petri dishes are seeded with cells and used for assays when approximately 75% monolayer. Volumes (0.1ml) of logarithmic dilutions of the virus strain are inoculated onto each of triplicate wells, and absorbed for one hour with intermittent shaking. […] The number of plaques is counted, the triplicate is averaged, and the number of plaque-forming units per ml is calculated.
(§7) The compounds are tested for activity against the herpes simplex stains using a stock solution of each compound freshly prepared. […] The antiviral efficacy of each compound is determined using the plaque reduction assay described above. […] After a 48-hour incubation period, at 37°C in a 5% CO2 atmosphere, the overlay medium is removed, the cells are stained as described above, and plaques are counted. The counts of triplicate wells are averaged, and the number of plaques in the presence of each drug dilution are calculated. […]
A general note: Plaque reduction counts the foci of infection that form in a cell layer.

The subject of a further data set is HSV-2. Kind of data set: Plaque reduction assay in vero cells, HSV-2. The format is cell-based, Herpes simplex virus. The settings on record: Human alphaherpesvirus 2, 48 hour incubation, read-out: ID50 HVS-2. How it is done: as §4, §5, §6, §7
The subject of data set [1] is Herpes simplex virus-1 (HL-34 strain). Kind of data set: HSV-1 systemic infection in mice, survival at 21 days. The settings on record: i.p.; for Survival: BID for 5 consecutive days, from 3 hours post-infection, 21 days. The format is in vivo. The procedure: Groups of ten mice were inoculated intraperitoneally with from 200 to 600 PFU/0.2ml of Herpes simplex virus-1 (HL-34 strain). Different doses of test compound were administered to separate groups of animals on a BID basis for five consecutive days commencing three hours after inoculation. Treatment was by an intraperitoneal route. The experiment was teminated 21 days post inoculation and the number of survivals in each group was counted. The mean survival time (MST, days) was calculated.

[2] abbreviates: Murine leukemia virus, SC1, UV-XC plaque assay, SC-1 cells, read-out: ID50 R-MuLV.

Consider “9-[2,3-Dideoxy-2,3-didehydro-4-β-phosphonomethoxy-β-D-erythrofuranosyl]adenine ammonium salt [Example 50]”, for which the IC50 in the data set with R-MuLV (Virus MuLV-R, Cell-line SC-1, read-out: ID50 (the source's name)) was 10 nM; with MuLV, below 100 nM; in the data set on HIV (LAV strain) (Virus HIV, Cell-line CEM, read-out: ID50 (the source's name)), 45000 nM; in the data set on HIV, 1500 nM. Further, in the data set with SC-1, the half-maximal cytotoxic concentration (CC50) (as a rule, the concentration giving 50% cytotoxicity) is above 100000 nM.

As to `Nc1ncnc2c1ncn2C[C@@H](CO)OCP(=O)(O)O` [(S)-HPMPA], the “activity in mice inoculated with Herpes simplex virus - 2 (in words)” value in the data set on Herpes simplex virus - 2 (in applicant's hands) is listed as “only slightly active”. In addition, the survived in the data set with Herpes simplex virus - 2 (mice inoculated with Herpes simplex virus - 2, i.p. 50 mg/kg/day, 21 day protocol) was found to be 30%.

As to `Nc1nc2c(ncn2COCCO)c(=O)[nH]1` [ACV, Acyclovir, reference compound], the IC50 in the data set on HSV-1 and with HSV-2 was 0.5 µg/mL (≈ 2.22 µM) throughout. In addition, the Survival in [1] (Dose 100 mg/kg/d) was 7/10; in data set [1] (Dose 200 mg/kg/d) it was 6/7.

As to `Cc1cn([C@H]2C[C@H](N=[N+]=[N-])[C@@H](CO)O2)c(=O)[nH]c1=O` [AZT, reference compound], the IC50 was 0.05 µg/mL with R-MuLV (setting [2]) and 0.1 µg/mL with HIV (LAV strain) (Human immunodeficiency virus 1, CCRF-CEM, 192 h, read-out: ID50 HIV).

Turning to `Nc1nc2c(ncn2COCOCP(=O)(O)O)c(=O)[nH]1` [Compound 8, 9-[3-(Phosphonomethoxy)methoxymethyl]guanine disodium salt], the IC50 amounted to 2.6 µg/mL in the data set on HSV-1 and 11 µg/mL in the data set with HSV-2. In addition, the Survival in [1] (Dose 10 mg/kg/d) was 3/10; in data set [1] (Dose 100 mg/kg/d) it was 9/10; in [1] (Dose 300 mg/kg/d), 10/10. In data set [1] (HSV-1 systemic infection in mice), the “activity compared with ACV in vivo (in words)” value was “equally as active as ACV”.

On to `Cc1cn(C2C=CC(OCP(=O)(O)O)O2)c(=O)[nH]c1=O` [Compound 25, 1-[2,3-Dideoxy-2,3-didehydro-4-phosphonomethoxy-beta-D-erythrofuranosyl]thymine disodium salt], for which the IC50 in the data set with R-MuLV (setting [2]) came out at 0.3 µg/mL; in the data set on HIV (LAV strain) (Human immunodeficiency virus 1, CCRF-CEM, 192 h, CEM-F cells, 8 days, p-24 gag protein ELISA, read-out: ID50 HIV) it was 1.8 µg/mL.
